Results as given in US6436929B1 (Wyeth, priority 1999, dated 2002).
Several values for one entry are separate records, joined by “and”; a condition that tells them apart may be missing. Equal values may be shown once. Blank lines part the entries; values can stand above or below the compound they belong to.

Tests used:
[1] = system: rat uterine decidualization; assay: Rat decidualization assay; assay type: in vivo; conditions: s.c.; for Estimated average EC50: average over dose-response curves; for EC50: ovariectomized rats, uterine wet weight/decidual response, individual studies (Exp)
Procedure: The animals are treated once daily for seven days.
Uteri are removed and trimmed of fat.
Decidual response: [(D−C)/C]×100%

human PR = biological target: T1, human PR (Homo sapiens, UniProt P06401); assay: PRE-luciferase assay in CV-1 cells co-transfected with human PR and PRE-luciferase plasmids; assay type: cell-based; conditions: agonist mode, PRE-luciferase in CV-1 cells, Table 1; read-out: hPR CV-1 EC50
T1 construct: expressed in transfected cells; host or cells: CV-1 cells (electroporation with pLEM-hPR-B and pGL3-2xPRE-luciferase)
T1 sequence (P06401 1-933): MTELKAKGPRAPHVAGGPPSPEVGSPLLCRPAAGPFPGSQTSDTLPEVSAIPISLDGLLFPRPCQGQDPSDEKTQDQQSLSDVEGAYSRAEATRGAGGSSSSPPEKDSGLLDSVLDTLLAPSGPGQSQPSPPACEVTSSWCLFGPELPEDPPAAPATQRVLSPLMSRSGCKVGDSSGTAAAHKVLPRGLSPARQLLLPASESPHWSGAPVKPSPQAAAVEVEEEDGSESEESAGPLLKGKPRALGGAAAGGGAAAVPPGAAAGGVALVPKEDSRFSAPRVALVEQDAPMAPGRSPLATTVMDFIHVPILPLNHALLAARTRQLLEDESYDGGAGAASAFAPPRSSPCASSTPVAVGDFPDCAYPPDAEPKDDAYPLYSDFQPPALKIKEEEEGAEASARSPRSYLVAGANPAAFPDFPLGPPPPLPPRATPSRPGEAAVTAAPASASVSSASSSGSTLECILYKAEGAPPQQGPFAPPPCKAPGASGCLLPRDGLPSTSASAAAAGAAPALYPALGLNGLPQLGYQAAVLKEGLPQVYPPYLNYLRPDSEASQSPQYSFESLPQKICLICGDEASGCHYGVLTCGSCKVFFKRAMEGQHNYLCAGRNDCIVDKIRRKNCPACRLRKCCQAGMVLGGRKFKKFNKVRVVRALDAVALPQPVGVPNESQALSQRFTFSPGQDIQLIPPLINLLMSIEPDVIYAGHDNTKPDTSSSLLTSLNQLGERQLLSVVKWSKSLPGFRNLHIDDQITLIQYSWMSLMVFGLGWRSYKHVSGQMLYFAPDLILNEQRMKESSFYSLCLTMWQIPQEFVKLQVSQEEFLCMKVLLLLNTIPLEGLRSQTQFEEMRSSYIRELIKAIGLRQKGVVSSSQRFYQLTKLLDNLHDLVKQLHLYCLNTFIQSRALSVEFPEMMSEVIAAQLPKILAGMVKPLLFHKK
Procedure: The object of this assay is to determine a compound's progestational or antiprogestational potency based on its effect on PRE-luciferase reporter activity in CV-1 cells co-transfected with human PR and PRE-luciferase plasmids. The materials methods used in the assay are as follows.
Electroporation is carried out at 260 V and […] in a Biorad Gene Pulser II. After electroporation, cells are resuspended in growth medium and plated in 96-well plate at 40,000 cells/well in 200 μl. Following overnight incubation, the medium is changed to experimental medium Cells are then treated with reference or test compounds in experimental medium. […] Twenty-four hr. after treatment, the medium is discarded, cells are washed three times with D-PBS (GIBCO, BRL). Fifty μl of cell lysis buffer (Promega, Madison, Wis.) is added to each well and the plates are shaken for 15 min in a Titer Plate Shaker (Lab Line Instrument, Inc.).
Each treatment consists of at least 4 replicates. Log transformed data are used for analysis of variance and nonlinear dose response curve fitting for both agonist and antagonist modes. Huber weighting is used to downweight the effects of outliers. EC50 or IC50 values are calculated from the retransformed values.

Ovulation = Ovulation inhibition; assay type: in vivo; conditions: Table 1
T47D cells = assay: T47D cell proliferation assay (BrdU incorporation); assay type: cell-based; conditions: half-maximal increase in BrdU incorporation, individual studies (Exp)
Procedure: The objective of this assay is the determination of progestational and antiprogestational potency by using a cell proliferation assay in T47D cells. A compound's effect on DNA synthesis in T47D cells is measured.
DMEM:F12(1:1) (GIBCO, BRL) supplemented with 10% (v/v) fetal bovine serum (not heat-inactivated), 100 U/ml penicillin, […], and 2 mM GlutaMax (GIBCO, BRL).
Minimum Essential Medium (MEM) (#51200-038GIBCO, BRL) phenol red-free supplemented with 0.5% charcoal stripped fetal bovine serum, 100 U/ml penicillin, […] streptomycin, and 2 mM GlutaMax (GIBCO, BRL). […]
At the end of BrdU labeling, the medium is removed and BrdU incorporation is measured using a cell proliferation ELISA kit (#RPN 250, Amersham Life Science) according to manufacturer's instructions. […] Then 25 μl of 1 M sulfuric acid is added to each well to stop color reaction and optical density is read in a plate reader at 450 nm within 5 min.
Square root-transformed data are used for analysis of variance and nonlinear dose response curve fitting for both agonist and antagonist modes. […] EC50 or IC50 values are calculated from the retransformed values. […]

Compound: C#C[C@]1(O)CC[C@H]2[C@@H]3CCC4=CC(=O)CC[C@@H]4[C@H]3C(=C)C[C@@]21CC [3-Ketodesogestrel]
Estimated average EC50 [1]: 0.10 mg/kg | EC50 [1]: 0.10 mg/kg and 0.06 mg/kg and 0.11 mg/kg

Compound: C#C[C@]1(O)CC[C@H]2[C@@H]3CCC4=CC(=O)CC[C@@H]4[C@H]3CC[C@@]21CC [Levonorgestrel]
Estimated average EC50 [1]: 0.10 mg/kg | EC50 [1]: 0.08 mg/kg and 0.12 mg/kg and 0.09 mg/kg (2×)

Compound: C[C@H](O)C(=O)[C@@]1(C)CC[C@H]2[C@@H]3CCC4=CC(=O)CCC4=C3CC[C@@]21C [Trimegestone]
EC50 (T47D cells): 0.017 nM and 0.014 nM and 0.019 nM

Compound: CC(=O)O[C@]1(C(C)=O)CC[C@H]2[C@@H]3C[C@H](C)C4=CC(=O)CC[C@]4(C)[C@H]3CC[C@@]21C [MPA, medroxyprogesterone acetate]
EC50 (T47D cells; Homo sapiens, T47D): 0.019 nM

Continued, in another order:

EC50 (human PR): 0.3 nM | melting point: 242 to 243 °C
Compound: CC1(C)OC(=S)Nc2ccc(-c3csc(C#N)c3)cc21 [Compound 2, 4-(4,4-Dimethyl-2-thioxo-1,4-dihydro-2H-benzo[d][1,3]oxazin-6-yl)-thiophene-2-carbonitrile]
Ovulation Inhibition ED100 (Ovulation): 1 mg/kg

EC50 (human PR): 0.65 nM | melting point: 183 to 184 °C
Compound: CC1(C)OC(=S)Nc2ccc(-c3cccc(Cl)c3)cc21 [Compound 1, 6-(3-Chlorophenyl)-4,4-dimethyl-1,4-dihydro-benzo[d][1,3]oxazin-2-thione]

EC50 (human PR): 5.1 nM
Compound: CC1(C)OC(=S)Nc2ccc(-c3cc(F)cc(C#N)c3)cc21 [Compound 3, 3-(4,4-Dimethyl-2-thioxo-1,4-dihydro-2H-benzo[d][1,3]oxazin-6-yl)-5-fluorobenzonitrile]

melting point: 215 to 217 °C
Compound: CC1(C)OC(=S)Nc2ccc(-c3cccc(CC#N)n3)cc21 [Example 19, [6-(4,4-dimethyl-2-thioxo-1,4-dihydro-2H-3,1-benzoxazin-6-yl)pyridin-2-yl]acetonitrile]
